Laboratory results taken from paper PMC8845285, “Serotoninergic receptor ligands improve Tamoxifen effectiveness on breast cancer cells” (BMC Cancer, 2022).

Key:
Type in all cases: cell-based, human
[1] = system: SKBR3 cells; test: SKBR3 cell viability, sulforhodamine B assay; conditions: for IC50: Homo sapiens, SK-BR-3, 72 h treatment
Experimental: MCF7 (ER^+, PR^+, HER2^−), SKBR3 (ER^−, PR^+, HER2^+) and MDA-MB231 (ER^−, PR^−, HER2^−) human BC cells and MCF10A non-cancer breast epithelial cells were available in our laboratory. MCF7, SKBR3 and MDA-MB231 cells were cultured in DMEM, supplemented with 10% FBS, 2 mM glutamine, 100 units/ml penicillin and 100 units/ml streptomycin. MCF10A cells were cultured in MEBM, supplemented with 0.4% BPE, 0.1% hEGF, 0.1%, Insulin, 0.1% Hydrocortisone and 0.1% GA-1000. […] Treatment with SER were carried out in culture conditions. Treatment with Tamoxifen and/or SER were carried out upon 48 h estrogen starvation in phenol-red free medium supplemented with 10% Charcoal Stripped (C/S) FBS, 2 mM glutamine, 100 units/ml penicillin and 100 units/ml streptomycin.
(§1) Cells were fixed with 50% trichloroacetic acid for at least 2 h at 4 °C, washed with distilled and de-ionized water, air-dryed and stained 30 min with 0.4% sulforhodamine B in 1% acetic acid. Unbound dye was removed and 10 mM tris-HCl solution (pH 7.5) was added to dissolve the protein-bound dye. Cell survival was assessed by optical density determination at 510 nm using a microplate reader.
Fig. 3 Effect of SER on SKBR3 cell viability. […] Cell viability was assessed, after 72 h, by sulforhodamine B assay (see Methods).

[2] = system: Tamoxifen-cultured MCF7 cells; test: Tamoxifen-cultured MCF7 cell viability, sulforhodamine B assay; conditions: E2 100 nM, 72 h; for further reduction of viability elicited by Tamoxifen in presence of SER: Tamoxifen 5 μM, Tamoxifen-cultured MCF7
Experimental: as §1
To further investigate the effect of SER79 and SER68 on Tamoxifen responsiveness and CTGF expression in MCF7 cells, we obtained - by a continuous treatment of 10 days with 1 μM Tamoxifen – a cellular model less sensitive to the drug (Tamoxifen-cultured MCF7). We observed that 20 μM SER79, 20 μM and 40 μM SER68, while not 5 μM SER79, reduced viability of Tamoxifen-cultured MCF7 cells by about 40% (adjp<0.01; Fig. 8a). […] However, in the presence of 20 μM SER79, 20 μM and 40 μM SER68, Tamoxifen elicited a further 40% reduction of viability, similar to that achieved in Tamoxifen-responsive MCF7 cells (adjp<0.01; Fig. 8b).
Fig. 8 Effect of SER79 and SER68 on Tamoxifen-cultured MCF7 cells. MCF7 cells were cultured in presence of Tamoxifen (1 μM) for 10 days. Estrogen-starved MCF7 and Tamoxifen-cultured MCF7 cells (48 h) were (a-c) treated with SER79 (20 μM, 5 μM) or SER68 (40 μ, 20 μM), (b) treated with Tamoxifen (5 μM) in presence of SER79 (20 μM, 5 μM) or SER68 (40 μM, 20 μM). All treatments were carried out in presence of E2 (100 nM) for 72 h. As positive control, the cells were treated with (a-c) E2 alone or (b) E2 in absence or in presence of SER (as indicated, dotted line). a,b Cell viability was assessed by sulforhodamine B assay (see Methods). The results were reported as percentage of viable cells compared to positive control, considered as maximum viability (100%). c mRNA levels of CTGF were determined by qPCR (see Methods and Table 1). Data were normalized on Ribosomal Protein S23 (Rps23) gene as internal standard and reported as CTGF mRNA levels in Tamoxifen-cultured MCF7 relative to those in MCF7 cells (dotted line). a-c Graphs represent the mean ± SD of at least three independent triplicate experiments. * denotes statistically significant values compared with (a,b) positive control (*adjp<0.05, ** adjp<0.01) or (c) MCF7 cells (*pval<0.05); # denotes statistically significant values compared with (b) cells treated with Tamoxifen in absence of SER or (c) untreated Tamoxifen-cultured MCF7 cells (#pval<0.01, ##pval<0.0001)

[3] = system: CTGF; test: CTGF mRNA levels in MCF7-R cells, qPCR; conditions: SER 20 μM
Experimental: Total RNA was isolated from cells, quantified (NanoDrop spectrophotometer, Life Technologies, Carlsbad, CA, USA) and reverse transcribed according to the manufacturer’s instructions. Semiquantitative PCR and qPCR assays were performed according to manufacturer’s instructions for Bio-Rad T100 thermal cycler and CFX Connect Real Time system (Biorad, Hercules, CA, USA), respectively. Relative gene expression quantification was measured by 2^−ΔΔCt method normalizing for the reference sample using Rps23 (Ribosomal Protein S23) as housekeeping gene.
Fig. 9 Effect of SER79 and SER68 on Tamoxifen-resistant (MCF7-R) cells. a Estrogen starved MCF7-R were treated with SER79 (20 μM, 5 μM) or SER68 (20 μM) in presence of E2 (100 nM). b Estrogen-starved MCF7-R were treated with Tamoxifen (5 μM) in presence of E2 and SER79 (20 μM) or SER68 (20 μM). a,b As positive control, the cells were treated with E2 alone, in absence or in presence of SER (dotted line). After 72 h, cell viability was assessed by sulforhodamine B assay (see Methods). The results were reported as percentage of viable cells compared to positive control, considered as maximum viability (100%). c mRNA levels of CTGF were determined by qPCR (see Methods and Table 1) in MCF7-R cells upon treatment with SER68 (20 μM). […]

SMILES	IC50 [1]	reduction of viability of Tamoxifen-cultured MCF7 cells ([2]; SER 20 μM alone)	further reduction of viability elicited by Tamoxifen in presence of SER ([2]; SER 20 μM)	reduction of viability of Tamoxifen-cultured MCF7 cells ([2]; SER 40 μM alone)	further reduction of viability elicited by Tamoxifen in presence of SER ([2]; SER 40 μM)	effect on CTGF mRNA content of MCF7-R cells [3]	reduction of SKBR3 cell viability ([1]; 50 μM, 72 h)	further reduction of viability elicited by Tamoxifen in presence of SER ([2]; SER 5 μM)
O=C1C2C3C=CC(C3)C2C(=O)N1OCCN1CCN(c2ccc(Cl)c(Cl)c2)CC1 (centres unmarked) [SER68]	260 ± 94.9 µM	about 40%	40%	about 40%	40%	did not further reduce		
N#CN=C(NCCCN1CCN(C(c2ccc(F)cc2)c2ccc(F)cc2)CC1)c1ccccn1 [SER79]	53.6 ± 10.4 µM	about 40%	40%				≈ 50%	No Tamoxifen effect was observed
